Test results: patent publication US10472352B2, “Rac inhibitors” (Geneyus LLC, priority 2017, dated 2019)
Read-outs that look alike come from different tables or passages of the source.

Test system: BT474 breast cancer cells
Experiment: BT474 Four (4) Day Cell Viability Assay
Format: cell-based
Conditions: BT474, 4 days; for viability at 2.5 µM / viability at 5 µM: Homo sapiens, BT-474, 96 h, read-out: cellular viability; for viability at 2.5 µM: 32661 2.5 μM; for viability at 5 µM: 32661 5 μM
Protocol: BT474 breast cancer cells that are Estrogen Receptor Positive and HER2+ were grown in 5% cFBS. 5,000 cells were seeded into each well of a 96-well plate and treated with escalating doses of lapatinib, fulvestrant, and 32661.

[1] = fulvestrant 0.0 nM, lapatinib 0.0 nM
[2] = fulvestrant 0.0 nM, lapatinib 6.9 nM
[3] = fulvestrant 0.0 nM, lapatinib 20.6 nM
[4] = fulvestrant 0.0 nM, lapatinib 61.7 nM
[5] = fulvestrant 0.0 nM, lapatinib 185.2 nM
[6] = fulvestrant 0.0 nM, lapatinib 555.6 nM
[7] = fulvestrant 0.0 nM, lapatinib 1666.7 nM
[8] = fulvestrant 0.0 nM, lapatinib 3333.0 nM
[9] = fulvestrant 6.9 nM, lapatinib 0.0 nM
[10] = fulvestrant 6.9 nM, lapatinib 6.9 nM
[11] = fulvestrant 6.9 nM, lapatinib 20.6 nM
[12] = fulvestrant 6.9 nM, lapatinib 61.7 nM
[13] = fulvestrant 6.9 nM, lapatinib 185.2 nM
[14] = fulvestrant 6.9 nM, lapatinib 555.6 nM
[15] = fulvestrant 6.9 nM, lapatinib 1666.7 nM
[16] = fulvestrant 6.9 nM, lapatinib 3333.0 nM
[17] = fulvestrant 20.6 nM, lapatinib 0.0 nM
[18] = fulvestrant 20.6 nM, lapatinib 6.9 nM
[19] = fulvestrant 20.6 nM, lapatinib 20.6 nM
[20] = fulvestrant 20.6 nM, lapatinib 61.7 nM
[21] = fulvestrant 20.6 nM, lapatinib 185.2 nM
[22] = fulvestrant 20.6 nM, lapatinib 555.6 nM
[23] = fulvestrant 20.6 nM, lapatinib 1666.7 nM
[24] = fulvestrant 20.6 nM, lapatinib 3333.0 nM
[25] = fulvestrant 61.7 nM, lapatinib 0.0 nM
[26] = fulvestrant 61.7 nM, lapatinib 6.9 nM
[27] = fulvestrant 61.7 nM, lapatinib 20.6 nM
[28] = fulvestrant 61.7 nM, lapatinib 61.7 nM
[29] = fulvestrant 61.7 nM, lapatinib 185.2 nM
[30] = fulvestrant 61.7 nM, lapatinib 555.6 nM
[31] = fulvestrant 61.7 nM, lapatinib 1666.7 nM
[32] = fulvestrant 61.7 nM, lapatinib 3333.0 nM
[33] = fulvestrant 185.2 nM, lapatinib 0.0 nM
[34] = fulvestrant 185.2 nM, lapatinib 6.9 nM
[35] = fulvestrant 185.2 nM, lapatinib 20.6 nM
[36] = fulvestrant 185.2 nM, lapatinib 61.7 nM
[37] = fulvestrant 185.2 nM, lapatinib 185.2 nM
[38] = fulvestrant 185.2 nM, lapatinib 555.6 nM
[39] = fulvestrant 185.2 nM, lapatinib 1666.7 nM
[40] = fulvestrant 185.2 nM, lapatinib 3333.0 nM
[41] = fulvestrant 555.6 nM, lapatinib 0.0 nM
[42] = fulvestrant 555.6 nM, lapatinib 6.9 nM
[43] = fulvestrant 555.6 nM, lapatinib 20.6 nM
[44] = fulvestrant 555.6 nM, lapatinib 61.7 nM
[45] = fulvestrant 555.6 nM, lapatinib 185.2 nM
[46] = fulvestrant 555.6 nM, lapatinib 555.6 nM
[47] = fulvestrant 555.6 nM, lapatinib 1666.7 nM
[48] = fulvestrant 555.6 nM, lapatinib 3333.0 nM
[49] = fulvestrant 1666.7 nM, lapatinib 0.0 nM
[50] = fulvestrant 1666.7 nM, lapatinib 6.9 nM
[51] = fulvestrant 1666.7 nM, lapatinib 20.6 nM
[52] = fulvestrant 1666.7 nM, lapatinib 61.7 nM
[53] = fulvestrant 1666.7 nM, lapatinib 185.2 nM
[54] = fulvestrant 1666.7 nM, lapatinib 555.6 nM
[55] = fulvestrant 1666.7 nM, lapatinib 1666.7 nM
[56] = fulvestrant 1666.7 nM, lapatinib 3333.0 nM
[57] = fulvestrant 3333.0 nM, lapatinib 0.0 nM
[58] = fulvestrant 3333.0 nM, lapatinib 6.9 nM
[59] = fulvestrant 3333.0 nM, lapatinib 20.6 nM
[60] = fulvestrant 3333.0 nM, lapatinib 61.7 nM
[61] = fulvestrant 3333.0 nM, lapatinib 185.2 nM
[62] = fulvestrant 3333.0 nM, lapatinib 555.6 nM
[63] = fulvestrant 3333.0 nM, lapatinib 1666.7 nM

## FC(F)(F)c1ccc2c(SCCCCCCn3cnc(CN4CCOCC4)c3)ccnc2c1 [Compound 0032661, 4-[[1-[6-[[7-(trifluoromethyl)-4-quinolyl]sulfanyl]hexyl]imidazol-4-yl]methyl]morpholine]
  cellular viability, addition of 32661 to lapatinib and fulvestrant: enhanced the reduction of cellular viability
Listed as 32661
  cellular viability, addition of 32661 to lapatinib and fulvestrant: further enhanced the reduction of cellular viability
[1]
  viability at 2.5 µM: 96%
  viability at 5 µM: 95%
[2]
  viability at 2.5 µM: 85%
  viability at 5 µM: 87%
[3]
  viability at 2.5 µM: 80%
  viability at 5 µM: 84%
[4]
  viability at 2.5 µM: 81%
  viability at 5 µM: 87%
[5]
  viability at 2.5 µM: 83%
  viability at 5 µM: 79%
[6]
  viability at 2.5 µM: 73%
  viability at 5 µM: 67%
[7]
  viability at 2.5 µM: 60%
  viability at 5 µM: 51%
[8]
  viability at 2.5 µM: 23%
  viability at 5 µM: 16%
[9]
  viability at 2.5 µM: 90%
  viability at 5 µM: 93%
[10]
  viability at 2.5 µM: 83%
  viability at 5 µM: 83%
[11]
  viability at 2.5 µM: 80%
  viability at 5 µM: 82%
[12]
  viability at 2.5 µM: 80%
  viability at 5 µM: 82%
[13]
  viability at 2.5 µM: 78%
  viability at 5 µM: 77%
[14]
  viability at 2.5 µM: 66%
  viability at 5 µM: 65%
[15]
  viability at 2.5 µM: 55%
  viability at 5 µM: 42%
[16]
  viability at 2.5 µM: 25%
  viability at 5 µM: 14%
[17]
  viability at 2.5 µM: 87%
  viability at 5 µM: 91%
[18]
  viability at 2.5 µM: 77%
  viability at 5 µM: 80%
[19]
  viability at 2.5 µM: 79%
  viability at 5 µM: 79%
[20]
  viability at 2.5 µM: 79%
  viability at 5 µM: 78%
[21]
  viability at 2.5 µM: 76%
  viability at 5 µM: 71%
[22]
  viability at 2.5 µM: 63%
  viability at 5 µM: 60%
[23]
  viability at 2.5 µM: 54%
  viability at 5 µM: 39%
[24]
  viability at 2.5 µM: 25%
  viability at 5 µM: 11%
[25]
  viability at 2.5 µM: 87%
  viability at 5 µM: 90%
[26]
  viability at 2.5 µM: 78%
  viability at 5 µM: 80%
[27]
  viability at 2.5 µM: 78%
  viability at 5 µM: 78%
[28]
  viability at 2.5 µM: 78%
  viability at 5 µM: 76%
[29]
  viability at 2.5 µM: 73%
  viability at 5 µM: 67%
[30]
  viability at 2.5 µM: 63%
  viability at 5 µM: 60%
[31]
  viability at 2.5 µM: 53%
  viability at 5 µM: 39%
[32]
  viability at 2.5 µM: 21%
  viability at 5 µM: 11%
[33]
  viability at 2.5 µM: 84%
  viability at 5 µM: 90%
[34]
  viability at 2.5 µM: 81%
  viability at 5 µM: 78%
[35]
  viability at 2.5 µM: 82%
  viability at 5 µM: 78%
[36]
  viability at 2.5 µM: 77%
  viability at 5 µM: 76%
[37]
  viability at 2.5 µM: 73%
  viability at 5 µM: 67%
[38]
  viability at 2.5 µM: 63%
  viability at 5 µM: 56%
[39]
  viability at 2.5 µM: 54%
  viability at 5 µM: 35%
[40]
  viability at 2.5 µM: 18%
  viability at 5 µM: 10%
[41]
  viability at 2.5 µM: 83%
  viability at 5 µM: 86%
[42]
  viability at 2.5 µM: 78%
  viability at 5 µM: 79%
[43]
  viability at 2.5 µM: 80%
  viability at 5 µM: 74%
[44]
  viability at 2.5 µM: 79%
  viability at 5 µM: 72%
[45]
  viability at 2.5 µM: 75%
  viability at 5 µM: 56%
[46]
  viability at 2.5 µM: 62%
  viability at 5 µM: 48%
[47]
  viability at 2.5 µM: 48%
  viability at 5 µM: 29%
[48]
  viability at 2.5 µM: 14%
  viability at 5 µM: 6%
[49]
  viability at 2.5 µM: 75%
  viability at 5 µM: 81%
[50]
  viability at 2.5 µM: 72%
  viability at 5 µM: 60%
[51]
  viability at 2.5 µM: 73%
  viability at 5 µM: 60%
[52]
  viability at 2.5 µM: 72%
  viability at 5 µM: 48%
[53]
  viability at 2.5 µM: 59%
  viability at 5 µM: 36%
[54]
  viability at 2.5 µM: 47%
  viability at 5 µM: 29%
[55]
  viability at 2.5 µM: 24%
  viability at 5 µM: 18%
[56]
  viability at 2.5 µM: 7%
  viability at 5 µM: 1%
[57]
  viability at 2.5 µM: 52%
  viability at 5 µM: 56%
[58]
  viability at 2.5 µM: 42%
  viability at 5 µM: 35%
[59]
  viability at 2.5 µM: 34%
  viability at 5 µM: 29%
[60]
  viability at 2.5 µM: 30%
  viability at 5 µM: 21%
[61]
  viability at 2.5 µM: 26%
  viability at 5 µM: 22%
[62]
  viability at 2.5 µM: 22%
  viability at 5 µM: 19%
[63]
  viability at 2.5 µM: 16%
  viability at 5 µM: 11%
Fulvestrant 3333.0 nM, lapatinib 3333.0 nM
  viability at 2.5 µM: 1%
